Like-named read-outs stand apart in the source and are kept apart here.
Experiments:
[1] = system: HIV-1 infection of TZM-bl cells; assay: HIV-1 infectivity enhancement assay, β-galactosidase luminescence; type: cell-based; conditions: for Rel-EFC / Log10 Infection Rel EFC: 1.3 µM peptide; for Rel-EFC: infection relative to EF-C (QCKIKQIINMWQ = 1); for Log10 Infection Rel EFC: log10 of infection relative to EF-C; for Log Infectivity: Log10 infection relative to EF-C, TZM-bl cells, asymmetric std dev errors; for Log10 Infection Rel EF-C: HIV-1 infection of TZM-bl cells; for Log10 of Rel to EFC (Feb2021): Log10 of infection relative to EF-C, all peptides of FigS16; for Abs. Inf.: absolute infection signal, HIV-1 on TZM-bl cells, β-galactosidase luminescence; for Log10 Inf. rel. to EF-C: log10 of HIV-1 infection of TZM-bl cells relative to EF-C (EF-C = 0)
[2] = Zeta-potential measurement; type: physicochemical
Procedure, shortened: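 Aggregates: 1 mg/mL peptide, PBS pH 7.4, 1 d RT; dilute in KCl (1 mM, aq); measure mobility → zeta via Smoluchowski.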

[3] = type: physicochemical; set-up: key to Fibril / Fibril Formation / TEM 2cat / Fibril: 1 = fibrils present; 0 non-fibrillar structures; conditions: for Fibril / Fibril Formation: 1 mg/mL, uranyl acetate stain, qualitative
[4] = Turbidity, derived count rate of scattered light; type: physicochemical; conditions: for Count Rate: derived count rate of scattered light (turbidity); for Log10 Count Rate: turbidity, derived count rate of scattered light, data of Figure 2D
[5] = Fig. S7 panel A (plotted against β-sheet content)
[6] = Fig. S7 panel B (plotted against CR), rounded to two decimals
[7] = Log10 of infection rate relative to EF-C, Figure 3A source data
[8] = infection rate relative to EF-C, log10, data of Figure 2D
[9] = infection rate relative to EF-C, log10, source data of Figure 2C
[10] = zeta-potential of peptide, source data of Figure 2C
[11] = zeta-potential of the peptide assemblies, mean, Figure 3A source data
[12] = TEM, 1 = fibrils present, 0 = non-fibrillar
[13] = TEM, 1 = fibrils present, 0 = non-fibrillar structures
[14] = category: fibrils present or non-fibrillar
[15] = zeta potential of peptide assemblies
[16] = FigS12 panel A, fibril category by TEM

Row | Substance | Rel-EFC [1] | Log10 Infection Rel EFC [1] | Log Infectivity [1, 5] | Log Infectivity [1, 6] | Log10 Infection Rel EF-C [1, 7] | Log10 Infection Rel EF-C [1, 8] | Log10 Infection Rel EF-C [1, 9] | Abs. Inf. [1] | Log10 Inf. rel. to EF-C [1] | Zeta-Pot. [2] | Zeta-Potential / mV [2, 10] | Zeta-Potential / mV [2, 11] | TEM 2cat ([3]; Fig S10 panel D) | Fibril / Fibril Formation ([3]; TEM) | Fibril [3, 12] | Fibril [3, 13] | Count Rate [4] | Log10 Count Rate [4] | TEM 2cat [3, 16] | Fibril ([3]; FigS12 panel B, TEM) | other results
1 | KIKIQINMWQ | 0,3 | -0,53 | -0.5276 | -0.53 | -0.53 | -0.5276 | -0.5276 | 6650 | -0.5276 | 14.87 | 15.7 mV | 14.87 mV | 1 | 1 | 1 | 1 | 2196 | 3.342 |  |  | Log10 of Rel to EFC (Feb2021) [1]: -0.53; Fibril ([3]; Fig S10 panel E): 1; TEM 2cat [3, 14]: 1
2 | KIKQIIN | 0,04 | -1,4 | -1.4 |  | -1.4 | -1.4 | -1.4 |  | -1.4 |  | -5.929 mV | -11.7 mV | 0 | 0 | 0 | 0 | 64.03 | 1.806 | 0 | 0 | Zeta-Pot. [2, 15]: -11.7
3 | KIKQIINM | 0,45 | -0,35 | -0.3458 | -0.35 | -0.35 | -0.3458 | -0.3458 |  | -0.3458 |  | 18.1 mV | 16.3 mV | 1 | 1 | 1 | 1 | 2481 | 3.395 |  |  | Log10 of Rel to EFC (Feb2021) [1]: -0.35; Zeta-Pot. [2, 15]: 16.3; Fibril ([3]; Fig S10 panel E): 1; TEM 2cat [3, 14]: 1
4 | KIKQIINMWQ | 0,35 | -0,46 | -0.4604 | -0.46 | -0.46 | -0.4604 | -0.4604 | 9363 | -0.4604 | 15.37 | 16.2 mV | 15.37 mV | 1 | 1 | 1 | 1 | 615.5 | 2.789 |  |  | Log10 of Rel to EFC (Feb2021) [1]: -0.46; Fibril ([3]; Fig S10 panel E): 1; TEM 2cat [3, 14]: 1
5 | KIRGKFEKED | 0,06 | -1,24 | -1.2355 |  | -1.24 | -1.2355 | -1.2355 | 643.3 | -1.2355 | -12.7 | -7.197 mV | -12.7 mV | 0 | 0 | 0 | 0 | 214.4 | 2.331 | 0 | 0 | 
6 | KKFQKKFQ | 0,03 | -1,54 | -1.545 |  | -1.54 | -1.545 | -1.545 | 423.3 | -1.545 | -9.19 | -6.175 mV | -9.19 mV | 0 | 0 | 0 | 0 | 73.6 | 1.867 | 0 | 0 | 
7 | KNDKND | 0,01 | -1,98 | -1.978 |  | -1.98 | -1.978 | -1.978 | 230 | -1.978 | -15 | -11.85 mV | -15 mV | 0 | 0 | 0 | 0 | 52.4 | 1.719 | 0 | 0 | 
8 | KNERIKNERI | 0,01 | -1,89 | -1.888 | -1.89 | -1.89 | -1.888 | -1.888 | 143.3 | -1.888 | -16 | -11.61 mV | -16 mV | 0 | 0 | 0 | 0 | 321.9 | 2.508 | 0 | 0 | Fibril ([3]; Fig S10 panel E): 0
